This is an account of results in US20250144562A1, “ELECTROCHEMICAL CO2 CAPTURE WITH AIR STABLE REDOX SPECIES” (President and Fellows of Harvard College, priority 2022, published 2025).

The nature of series [1]: Reduction potentials stated for choice of chemical reductant. To be noted: pH=7.
Series [2] can be described thus: Cyclic voltammetry of the water-soluble redox molecules. To be noted: for redox peak separation: 0.1 M in 1 M TBABr.
Source text: Cyclic voltammetry was used to examine the electrochemical behaviors of the water-soluble redox molecules in the presence/absence of CO2.
For series [3] the following is noted: pH >6; cited from earlier work.
Series [4] is described as follows: Stability in air of 2,7-BTMAPFL-OH stirred in air for 12 hours, 1H NMR. To be noted: vigorously stirred in air 12 hours. Type of series: physicochemical. How it is done: We vigorously stirred the solution in air for 12 hours, then checked its ^1H NMR spectra before and after being stirred in air.
The 2,7-BTMAPFL molecule undergoes PCET process and forms 2,7-BTMAPFL-OH after the electrochemical reduction; meanwhile, the electrolyte pH swings from near neutral (˜7) to ˜14. Therefore, we also investigated the air stability of 2,7-BTMAPFL-OH at pH 14 by vigorously stirring the pH 14 solution in air for 12 hours.

A short description of series [5]: Stability in air of reduced BTMAPAQ isomers (with and without captured CO2) tracked by 1H NMR.
The mark [6] stands for this setting: with captured CO2, D2O, 1 M KCl.
Where [7] appears, read: with captured CO2, D2O, 1 M KCl, air exposure.
The mark [8] stands for this setting: with captured CO2, D2O, 1 M KCl, air exposure, day-4.
[9] abbreviates: with captured CO2, D2O, 1 M KCl, air exposure, day-6.
Where [10] appears, read: without captured CO2, D2O, 1 M KCl.
The mark [11] stands for this setting: without captured CO2, D2O, 1 M KCl, air exposure.
Where [12] appears, read: without captured CO2, D2O, 1 M KCl, air exposure, day-3.

As to “bis-(trimethylammonio)propyl anthraquinone [BTMAPAQ]”, the reduction potential in series [1] was −0.41 V vs. SHE.

As to `C[N+](C)(C)CCCOc1ccc2c(c1)C(=O)c1cc(OCCC[N+](C)(C)C)ccc1-2` [2,7-BTMAPFL], the “cyclic voltammetry peaks observed” value in series [2] (0.1 M in 1 M KCl at pH 7, scan rate 100 mV/s) was “a reduction peak but no oxidation peak”. Also, the “potential of the pair of redox peaks” value in series [2] (0.1 M in 1 M KOH at pH 14, scan rate 100 mV/s) is recorded as −0.67 V vs. Ag/AgCl. Besides, the electrochemical reversibility result in series [2] (pH 7) is recorded as “poor reversibility”; in series [2] (pH 14), “good reversibility”.

Regarding `O=NO` [NO2, nitrite], the air-stability result in series [3] is listed as “superior air-stability”.

As for `C[N+](C)(C)CCCOc1ccc2c(c1)C(O)c1cc(OCCC[N+](C)(C)C)ccc1-2` [2,7-BTMAPFL-OH], the “air stability (1H NMR spectra unchanged)” value in series [4] (D2O, 1 M KCl, pH 7) is given as “excellent air stability over 12 hours”. The “air stability (1H NMR spectra almost unchanged)” value in series [4] (pH 14) is reported as “excellent air stability over 12 hours”.

With `O=S([O-])S(=O)[O-].[Na+].[Na+]` [Na2S2O4, sodium dithionite, reference compound], the reduction potential in series [1] is on record as −0.66 V vs. SHE.

Take `C[N+](C)(C)CCCOc1ccc(OCCC[N+](C)(C)C)c2c1C(=O)c1ccccc1C2=O` [1,4-BTMAPAQ]: the “oxidation by air of the reduced species” value in series [5] (setting [6]) is “relatively slow”; in series [5] (setting [10]) it was “very slow”. In addition, the “day on which peaks of oxidized state start to appear” value in series [5] (setting [7]) was 2 days; in series [5] (setting [11]), 3 days. Also, the “reduced form with captured CO2 converted to the oxidized form” value in series [5] (with captured CO2, D2O, 1 M KCl, air exposure, day-3) was 51.5%; in series [5] (setting [8]), 73.0%; in series [5] (setting [9]), 98.0%. For the same compound, the “reduced form converted to the oxidized form” value in series [5] (setting [12]) was determined as 11.3%; in series [5] (without captured CO2, D2O, 1 M KCl, air exposure, day-4) it was 27.6%; in series [5] (without captured CO2, D2O, 1 M KCl, air exposure, day-6), 50%.

With `C[N+](C)(C)CCCOc1cccc2c1C(=O)c1c(OCCC[N+](C)(C)C)cccc1C2=O` [1,8-BTMAPAQ], the redox peak separation in series [2] (absence of CO2, scan rate 100 mV/s) is reported as 100 mV; in series [2] (in the presence of CO2, scan rate 100 mV/s), 200 mV. Also, in series [5] (with captured CO2, 1 M TBABr), the “time the reduced species with captured CO2 can withstand the presence of air” value is 5 days. Besides, the “oxidation by air of the reduced species” value in series [5] (with captured CO2, D2O, 1 M TBABr) was “extremely slow”. Besides, the “day on which peaks of oxidized state appear” value in series [5] (with captured CO2, D2O, 1 M TBABr, air exposure day 1 to day 9) was determined as 9 days.

As for `C[N+](C)(C)CCCOc1cccc2c1C(=O)c1cccc(OCCC[N+](C)(C)C)c1C2=O` [1,5-BTMAPAQ], the “oxidation by air of the reduced species” value in series [5] (setting [6]) and in series [5] (setting [10]) was “very slow” throughout. Also, the results for the “day on which peaks of oxidized state start to appear” value in series [5] (setting [7]) and in series [5] (setting [11]) were 4 days and 2 days, respectively. Also, the “reduced form with captured CO2 converted to the oxidized form” value in series [5] (setting [8]) amounted to 15.0%; in series [5] (setting [9]), 22.3%. In series [5] (setting [11]), the “air stability (1H NMR spectra unchanged)” value is listed as “good air stability over the first day”. Further, the “reduced form converted to the oxidized form” value in series [5] (setting [12]) worked out at 37.0%; in series [5] (without captured CO2, D2O, 1 M KCl, air exposure, day-5) it was 47.4%; in series [5] (without captured CO2, D2O, 1 M KCl, loosely capped, air exposure, day-2), 23.6%.
